One experiment relates to SNB-19. Briefly: Growth inhibition of human SNB19 cells at 10 uM after 48 hrs by sulforhodamine B assay relative to control. The format is functional. The conditions noted are these: SNB-19, 48 h, read-out: GI.
As for `COc1cc(/C=C2\Oc3cc4occc4c(OC)c3C2=O)ccc1OCC(=O)Nc1ccccc1`, the inhibition of growth at 10 µM is 67.1 to 79.6%.

Another experiment has as its system SN12C. Briefly: Growth inhibition of human SN12C cells at 10 uM after 48 hrs by sulforhodamine B assay relative to control. The format is functional. The conditions noted are these: read-out: GI.
Regarding `COc1cc(/C=C2\Oc3cc4occc4c(OC)c3C2=O)ccc1OCC(=O)Nc1ccccc1`, the inhibition of growth at 10 µM lay in the range of 67.1 to 79.6%.

Another experiment relates to SW-620. Briefly: Growth inhibition of human SW620 cells at 10 uM after 48 hrs by sulforhodamine B assay relative to control. It is filed as functional. The conditions noted are these: SW-620, 48 h, read-out: GI.
As for `COc1cc(/C=C2\Oc3cc4occc4c(OC)c3C2=O)ccc1OCC(=O)Nc1ccccc1`, the inhibition of growth at 10 µM lay within 67.1 to 79.6%.

The next experiment relates to NCI/ADR-RES. Briefly: Growth inhibition of human NCI-ADR-RES cells at 10 uM after 48 hrs by sulforhodamine B assay relative to control. It is filed as functional. The conditions noted are these: read-out: GI.
Consider `COc1cc(/C=C2\Oc3cc4occc4c(OC)c3C2=O)ccc1OCC(=O)Nc1ccccc1`, for which the inhibition of growth at 10 µM fell in the range of 67.1 to 79.6%.

The subject of a further experiment is NCI-H322M. Briefly: Growth inhibition of human NCI-H322M cells at 10 uM after 48 hrs by sulforhodamine B assay relative to control. It is filed as functional. The conditions noted are these: read-out: GI.
As to `COc1cc(/C=C2\Oc3cc4occc4c(OC)c3C2=O)ccc1OCC(=O)Nc1ccccc1`, the inhibition of growth at 10 µM fell in the range of 67.1 to 79.6%.

The test system of the next experiment is K562. Briefly: Growth inhibition of human K562 cells at 10 uM after 48 hrs by sulforhodamine B assay relative to control. The conditions noted are these: K562, 48 h, read-out: GI. It is filed as functional.
Consider `COc1cc(/C=C2\Oc3cc4occc4c(OC)c3C2=O)ccc1OCC(=O)Nc1ccccc1`, for which the inhibition of growth at 10 µM lay in the range of 67.1 to 79.6%.

For a further experiment, the system named is MOLT-4. Briefly: Growth inhibition of human MOLT4 cells at 10 uM after 48 hrs by sulforhodamine B assay relative to control. The conditions noted are these: MOLT-4, 48 h, read-out: GI. The format is functional.
As for `COc1cc(/C=C2\Oc3cc4occc4c(OC)c3C2=O)ccc1OCC(=O)Nc1ccccc1`, the inhibition of growth at 10 µM was in the range of 67.1 to 79.6%.

For the next experiment, the system named is T47D. Briefly: Growth inhibition of human T47D cells at 10 uM after 48 hrs by sulforhodamine B assay relative to control. It is filed as functional. The conditions noted are these: read-out: GI.
Take `COc1cc(/C=C2\Oc3cc4occc4c(OC)c3C2=O)ccc1OCC(=O)Nc1ccccc1`: the inhibition of growth at 10 µM fell in the range of 67.1 to 79.6%.

Another experiment deals with SK-MEL-5. Put plainly: Growth inhibition of human SK-MEL-5 cells at 10 uM after 48 hrs by sulforhodamine B assay relative to control. The format is functional. The conditions noted are these: SK-MEL-5, 48 h, read-out: GI.
Regarding `COc1cc(/C=C2\Oc3cc4occc4c(OC)c3C2=O)ccc1OCC(=O)Nc1ccccc1`, the inhibition of growth at 10 µM was in the range of 67.1 to 79.6%.

In the next experiment the test system is RPMI-8226. Put plainly: Growth inhibition of human RPMI8226 cells at 10 uM after 48 hrs by sulforhodamine B assay relative to control. The format is functional. The conditions noted are these: RPMI-8226, 48 h, read-out: GI.
With `COc1cc(/C=C2\Oc3cc4occc4c(OC)c3C2=O)ccc1OCC(=O)Nc1ccccc1`, the inhibition of growth at 10 µM fell in the range of 67.1 to 79.6%.

Another experiment has as its system HCT-15. Put plainly: Growth inhibition of human HCT15 cells at 10 uM after 48 hrs by sulforhodamine B assay relative to control. The conditions noted are these: HCT-15, 48 h, read-out: GI. It is filed as functional.
Take `COc1cc(/C=C2\Oc3cc4occc4c(OC)c3C2=O)ccc1OCC(=O)Nc1ccccc1`: the inhibition of growth at 10 µM was 67.1 to 79.6%.

For the next experiment, the system named is KM12. Briefly: Growth inhibition of human KM12 cells at 10 uM after 48 hrs by sulforhodamine B assay relative to control. The conditions noted are these: KM12, 48 h, read-out: GI. It is filed as functional.
For `COc1cc(/C=C2\Oc3cc4occc4c(OC)c3C2=O)ccc1OCC(=O)Nc1ccccc1`, the inhibition of growth at 10 µM was in the range of 67.1 to 79.6%.

The subject of a further experiment is HT-29. Put plainly: Growth inhibition of human HT-29 cells at 10 uM after 48 hrs by sulforhodamine B assay relative to control. The format is functional. The conditions noted are these: HT-29, 48 h, read-out: GI.
For `COc1cc(/C=C2\Oc3cc4occc4c(OC)c3C2=O)ccc1OCC(=O)Nc1ccccc1`, the inhibition of growth at 10 µM fell in the range of 67.1 to 79.6%.

The next experiment has as its system OVCAR-4. Briefly: Growth inhibition of human OVCAR4 cells at 10 uM after 48 hrs by sulforhodamine B assay relative to control. The conditions noted are these: OVCAR-4, 48 h, read-out: GI. It is filed as functional.
As for `COc1cc(/C=C2\Oc3cc4occc4c(OC)c3C2=O)ccc1OCC(=O)Nc1ccccc1`, the inhibition of growth at 10 µM fell in the range of 67.1 to 79.6%.

In another experiment the test system is NCI-H226. Briefly: Growth inhibition of human NCI-H226 cells at 10 uM after 48 hrs by sulforhodamine B assay relative to control. The conditions noted are these: NCI-H226, 48 h, read-out: GI. It is filed as functional.
With `COc1cc(/C=C2\Oc3cc4occc4c(OC)c3C2=O)ccc1OCC(=O)Nc1ccccc1`, the inhibition of growth at 10 µM is 67.1 to 79.6%.

A further experiment has as its system NCI-H23. Put plainly: Growth inhibition of human NCI-H23 cells at 10 uM after 48 hrs by sulforhodamine B assay relative to control. The format is functional. The conditions noted are these: NCI-H23, 48 h, read-out: GI.
`COc1cc(/C=C2\Oc3cc4occc4c(OC)c3C2=O)ccc1OCC(=O)Nc1ccccc1`: the inhibition of growth at 10 µM was 67.1 to 79.6%.

The next experiment deals with PC-3. Briefly: Growth inhibition of human PC3 cells at 10 uM after 48 hrs by sulforhodamine B assay relative to control. The format is functional. The conditions noted are these: PC-3, 48 h, read-out: GI.
`COc1cc(/C=C2\Oc3cc4occc4c(OC)c3C2=O)ccc1OCC(=O)Nc1ccccc1`: the inhibition of growth at 10 µM is 67.1 to 79.6%.

A further experiment has as its system HCC 2998. Put plainly: Growth inhibition of human HCC2998 cells at 10 uM after 48 hrs by sulforhodamine B assay relative to control. It is filed as functional. The conditions noted are these: HCC 2998, 48 h, read-out: GI.
On to `COc1cc(/C=C2\Oc3cc4occc4c(OC)c3C2=O)ccc1OCC(=O)Nc1ccccc1`, for which the inhibition of growth at 10 µM lay within 67.1 to 79.6%.

Another experiment relates to OVCAR-5. Briefly: Growth inhibition of human OVCAR5 cells at 10 uM after 48 hrs by sulforhodamine B assay relative to control. It is filed as functional. The conditions noted are these: OVCAR-5, 48 h, read-out: GI.
On to `COc1cc(/C=C2\Oc3cc4occc4c(OC)c3C2=O)ccc1OCC(=O)Nc1ccccc1`, for which the inhibition of growth at 10 µM was 67.1 to 79.6%.

For the origin of these results see ChEMBL document CHEMBL4613211, “Aurone: A biologically attractive scaffold as anticancer agent” (Eur J Med Chem, 2019).
